Laboratory results published in the supplement of paper PMC8612539.

System: Escherichia coli
Test: minimum inhibitory concentration (MIC)
Description: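 Broth microdilution MIC (Sensititre BOPO7F bovine plate, CLSI methods) of 19 antimicrobials against field isolates of P. multocida, M. haemolytica, H. somni (deep nasopharyngeal swabs) and E. coli, Enterococcus spp. (rectal swabs) from weaned dairy heifers. Incubation 16-24 h at 35 C. MIC is the lowest concentration preventing visible growth. Values with <= or > lie at the tested range limits. Trimethoprim-sulfamethoxazole is given as the trimethoprim component of a 1:19 mixture.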

COc1cc(Cc2cnc(N)nc2N)cc(OC)c1OC.Cc1cc(NS(=O)(=O)c2ccc(N)cc2)no1 [trimethoprim-sulfamethoxazole]
Details	minimum inhibitory concentration [µg/mL]
isolate (source animal id): 1	≤ 2
isolate (source animal id): 2	> 2
isolate (source animal id): 3	≤ 2
isolate (source animal id): 4	≤ 2
isolate (source animal id): 5	> 2
isolate (source animal id): 6	> 2
isolate (source animal id): 7	> 2
isolate (source animal id): 8	≤ 2
isolate (source animal id): 9	> 2
isolate (source animal id): 10	> 2
isolate (source animal id): 11	≤ 2
isolate (source animal id): 12	> 2
isolate (source animal id): 13	≤ 2
isolate (source animal id): 14	> 2
isolate (source animal id): 15	≤ 2
isolate (source animal id): 16	≤ 2
isolate (source animal id): 17	> 2
isolate (source animal id): 18	≤ 2
isolate (source animal id): 19	≤ 2
isolate (source animal id): 20	> 2
isolate (source animal id): 21	≤ 2
isolate (source animal id): 22	≤ 2
isolate (source animal id): 23	≤ 2
isolate (source animal id): 24	≤ 2
isolate (source animal id): 25	> 2
isolate (source animal id): 26	≤ 2
isolate (source animal id): 27	> 2
isolate (source animal id): 28	≤ 2
isolate (source animal id): 29	> 2
isolate (source animal id): 30	> 2
isolate (source animal id): 31	> 2
isolate (source animal id): 32	> 2
isolate (source animal id): 33	> 2
isolate (source animal id): 34	≤ 2
isolate (source animal id): 35	> 2
isolate (source animal id): 36	> 2
isolate (source animal id): 37	> 2
isolate (source animal id): 38	> 2
isolate (source animal id): 39	> 2
isolate (source animal id): 40	≤ 2
isolate (source animal id): 41	> 2
isolate (source animal id): 42	> 2
isolate (source animal id): 43	> 2
isolate (source animal id): 44	≤ 2
isolate (source animal id): 45	> 2
isolate (source animal id): 46	≤ 2
isolate (source animal id): 47	> 2
isolate (source animal id): 48	> 2
isolate (source animal id): 49	> 2
isolate (source animal id): 50	> 2
isolate (source animal id): 51	> 2
isolate (source animal id): 52	≤ 2
isolate (source animal id): 53	> 2
isolate (source animal id): 54	≤ 2
isolate (source animal id): 55	≤ 2
isolate (source animal id): 56	≤ 2
isolate (source animal id): 57	> 2
isolate (source animal id): 58	≤ 2
isolate (source animal id): 59	≤ 2
isolate (source animal id): 60	≤ 2
isolate (source animal id): 61	> 2
isolate (source animal id): 62	≤ 2
isolate (source animal id): 63	≤ 2
isolate (source animal id): 64	≤ 2
isolate (source animal id): 65	> 2
isolate (source animal id): 66	≤ 2
isolate (source animal id): 67	≤ 2
isolate (source animal id): 68	≤ 2
isolate (source animal id): 69	≤ 2
isolate (source animal id): 70	≤ 2
isolate (source animal id): 71	≤ 2
isolate (source animal id): 72	≤ 2
isolate (source animal id): 73	≤ 2
isolate (source animal id): 74	≤ 2
isolate (source animal id): 75	≤ 2
isolate (source animal id): 76	> 2
isolate (source animal id): 77	≤ 2
isolate (source animal id): 78	> 2
isolate (source animal id): 79	≤ 2
isolate (source animal id): 80	≤ 2
isolate (source animal id): 81	> 2
isolate (source animal id): 82	≤ 2
isolate (source animal id): 83	≤ 2
isolate (source animal id): 84	≤ 2
isolate (source animal id): 85	≤ 2
isolate (source animal id): 86	> 2
isolate (source animal id): 87	≤ 2
isolate (source animal id): 88	≤ 2
isolate (source animal id): 89	≤ 2
isolate (source animal id): 90	≤ 2
isolate (source animal id): 91	≤ 2
isolate (source animal id): 92	≤ 2
isolate (source animal id): 93	≤ 2
isolate (source animal id): 94	> 2
isolate (source animal id): 95	≤ 2
isolate (source animal id): 96	≤ 2
isolate (source animal id): 97	> 2
isolate (source animal id): 98	≤ 2
isolate (source animal id): 99	≤ 2
isolate (source animal id): 100	≤ 2
isolate (source animal id): 101	> 2
isolate (source animal id): 102	≤ 2
isolate (source animal id): 103	≤ 2
isolate (source animal id): 104	≤ 2
isolate (source animal id): 105	≤ 2
isolate (source animal id): 106	> 2
isolate (source animal id): 107	≤ 2
isolate (source animal id): 108	≤ 2
isolate (source animal id): 109	≤ 2
isolate (source animal id): 110	≤ 2
isolate (source animal id): 111	≤ 2
isolate (source animal id): 112	≤ 2
isolate (source animal id): 113	≤ 2
isolate (source animal id): 114	≤ 2
isolate (source animal id): 115	> 2
isolate (source animal id): 116	≤ 2
isolate (source animal id): 117	≤ 2
isolate (source animal id): 118	≤ 2
isolate (source animal id): 119	> 2
isolate (source animal id): 120	> 2
isolate (source animal id): 121	> 2
isolate (source animal id): 122	> 2
isolate (source animal id): 123	≤ 2
isolate (source animal id): 124	> 2
isolate (source animal id): 125	≤ 2
isolate (source animal id): 126	> 2
isolate (source animal id): 127	> 2
isolate (source animal id): 128	≤ 2
isolate (source animal id): 129	≤ 2
isolate (source animal id): 130	> 2
isolate (source animal id): 131	≤ 2
isolate (source animal id): 132	≤ 2
isolate (source animal id): 133	≤ 2
isolate (source animal id): 134	≤ 2
isolate (source animal id): 135	≤ 2
isolate (source animal id): 136	≤ 2
isolate (source animal id): 137	≤ 2
isolate (source animal id): 138	> 2
isolate (source animal id): 139	> 2
isolate (source animal id): 140	≤ 2
isolate (source animal id): 141	> 2
isolate (source animal id): 142	≤ 2
isolate (source animal id): 143	> 2
isolate (source animal id): 144	≤ 2
isolate (source animal id): 145	> 2
isolate (source animal id): 146	≤ 2
isolate (source animal id): 147	> 2
isolate (source animal id): 148	≤ 2
isolate (source animal id): 149	≤ 2
isolate (source animal id): 150	> 2
isolate (source animal id): 151	≤ 2
isolate (source animal id): 152	≤ 2
isolate (source animal id): 153	≤ 2
isolate (source animal id): 154	≤ 2
isolate (source animal id): 155	≤ 2
isolate (source animal id): 156	> 2
isolate (source animal id): 157	≤ 2
isolate (source animal id): 158	≤ 2
isolate (source animal id): 159	≤ 2
isolate (source animal id): 160	> 2
isolate (source animal id): 161	> 2
isolate (source animal id): 162	≤ 2
isolate (source animal id): 163	≤ 2
isolate (source animal id): 164	≤ 2
isolate (source animal id): 165	≤ 2
isolate (source animal id): 166	≤ 2
isolate (source animal id): 167	≤ 2
isolate (source animal id): 168	≤ 2
isolate (source animal id): 169	≤ 2
isolate (source animal id): 170	≤ 2
isolate (source animal id): 171	≤ 2
isolate (source animal id): 172	≤ 2
isolate (source animal id): 173	≤ 2
isolate (source animal id): 174	≤ 2
isolate (source animal id): 175	≤ 2
isolate (source animal id): 176	≤ 2
isolate (source animal id): 177	≤ 2
isolate (source animal id): 178	≤ 2
isolate (source animal id): 179	≤ 2
isolate (source animal id): 180	≤ 2
isolate (source animal id): 181	≤ 2
isolate (source animal id): 182	≤ 2
isolate (source animal id): 183	≤ 2
isolate (source animal id): 184	≤ 2
isolate (source animal id): 185	≤ 2
isolate (source animal id): 186	≤ 2
isolate (source animal id): 187	≤ 2
isolate (source animal id): 188	> 2
isolate (source animal id): 189	≤ 2
isolate (source animal id): 190	> 2
isolate (source animal id): 191	≤ 2
isolate (source animal id): 192	≤ 2
isolate (source animal id): 193	≤ 2
isolate (source animal id): 194	≤ 2
isolate (source animal id): 195	≤ 2
isolate (source animal id): 196	≤ 2
isolate (source animal id): 197	≤ 2
isolate (source animal id): 198	> 2
isolate (source animal id): 199	≤ 2
isolate (source animal id): 200	≤ 2
isolate (source animal id): 201	≤ 2
isolate (source animal id): 202	≤ 2
isolate (source animal id): 203	≤ 2
isolate (source animal id): 204	≤ 2
isolate (source animal id): 205	≤ 2
isolate (source animal id): 206	≤ 2
isolate (source animal id): 207	≤ 2
isolate (source animal id): 208	≤ 2
isolate (source animal id): 209	≤ 2
isolate (source animal id): 210	≤ 2
isolate (source animal id): 211	≤ 2
isolate (source animal id): 212	≤ 2
isolate (source animal id): 213	≤ 2
isolate (source animal id): 214	≤ 2
isolate (source animal id): 215	≤ 2
isolate (source animal id): 216	> 2
isolate (source animal id): 217	≤ 2
isolate (source animal id): 218	≤ 2
isolate (source animal id): 219	≤ 2
isolate (source animal id): 220	≤ 2
isolate (source animal id): 221	≤ 2
isolate (source animal id): 222	≤ 2
isolate (source animal id): 223	≤ 2
isolate (source animal id): 224	≤ 2
isolate (source animal id): 225	≤ 2
isolate (source animal id): 226	> 2
isolate (source animal id): 227	≤ 2
isolate (source animal id): 228	≤ 2
isolate (source animal id): 229	> 2
isolate (source animal id): 230	≤ 2
isolate (source animal id): 231	≤ 2
isolate (source animal id): 232	≤ 2
isolate (source animal id): 233	≤ 2
isolate (source animal id): 234	≤ 2
isolate (source animal id): 235	≤ 2
isolate (source animal id): 236	≤ 2
isolate (source animal id): 237	≤ 2
isolate (source animal id): 238	≤ 2
isolate (source animal id): 239	≤ 2
isolate (source animal id): 240	≤ 2
isolate (source animal id): 241	≤ 2
isolate (source animal id): 242	≤ 2
isolate (source animal id): 243	≤ 2
isolate (source animal id): 244	≤ 2
isolate (source animal id): 245	≤ 2
isolate (source animal id): 246	≤ 2
isolate (source animal id): 247	≤ 2
isolate (source animal id): 248	≤ 2
isolate (source animal id): 249	≤ 2
isolate (source animal id): 250	≤ 2
isolate (source animal id): 251	≤ 2
isolate (source animal id): 252	≤ 2
isolate (source animal id): 253	≤ 2
isolate (source animal id): 254	≤ 2
isolate (source animal id): 255	≤ 2
isolate (source animal id): 256	≤ 2
isolate (source animal id): 257	≤ 2
isolate (source animal id): 258	≤ 2
isolate (source animal id): 259	> 2
isolate (source animal id): 260	≤ 2
isolate (source animal id): 261	≤ 2
isolate (source animal id): 262	≤ 2
isolate (source animal id): 263	≤ 2
isolate (source animal id): 264	≤ 2
isolate (source animal id): 265	≤ 2
isolate (source animal id): 266	≤ 2
isolate (source animal id): 267	≤ 2
isolate (source animal id): 268	≤ 2
isolate (source animal id): 269	≤ 2
isolate (source animal id): 270	≤ 2
isolate (source animal id): 271	≤ 2
isolate (source animal id): 272	≤ 2
isolate (source animal id): 273	≤ 2
isolate (source animal id): 274	> 2
isolate (source animal id): 275	> 2
isolate (source animal id): 276	≤ 2
isolate (source animal id): 277	≤ 2
isolate (source animal id): 278	≤ 2
isolate (source animal id): 279	≤ 2
isolate (source animal id): 280	≤ 2
isolate (source animal id): 281	≤ 2
isolate (source animal id): 282	≤ 2
isolate (source animal id): 283	≤ 2
isolate (source animal id): 284	≤ 2
isolate (source animal id): 285	≤ 2
isolate (source animal id): 286	> 2
isolate (source animal id): 287	> 2
isolate (source animal id): 288	≤ 2
isolate (source animal id): 289	≤ 2
isolate (source animal id): 290	≤ 2
isolate (source animal id): 291	> 2
isolate (source animal id): 292	> 2
isolate (source animal id): 293	≤ 2
isolate (source animal id): 294	≤ 2
isolate (source animal id): 295	> 2
isolate (source animal id): 296	≤ 2
isolate (source animal id): 297	≤ 2
isolate (source animal id): 298	> 2
isolate (source animal id): 299	≤ 2
isolate (source animal id): 300	≤ 2
isolate (source animal id): 301	≤ 2
isolate (source animal id): 302	≤ 2
isolate (source animal id): 303	≤ 2
isolate (source animal id): 304	> 2
isolate (source animal id): 305	≤ 2
isolate (source animal id): 306	≤ 2
isolate (source animal id): 307	≤ 2
isolate (source animal id): 308	≤ 2
isolate (source animal id): 309	≤ 2
isolate (source animal id): 310	≤ 2
isolate (source animal id): 311	> 2
isolate (source animal id): 312	≤ 2
isolate (source animal id): 313	≤ 2
isolate (source animal id): 314	≤ 2
isolate (source animal id): 315	≤ 2
isolate (source animal id): 316	> 2
isolate (source animal id): 317	> 2
isolate (source animal id): 318	≤ 2
isolate (source animal id): 319	≤ 2
isolate (source animal id): 320	≤ 2
isolate (source animal id): 321	> 2
isolate (source animal id): 322	≤ 2
isolate (source animal id): 323	> 2
isolate (source animal id): 324	≤ 2
isolate (source animal id): 325	> 2
isolate (source animal id): 326	≤ 2
isolate (source animal id): 327	≤ 2
isolate (source animal id): 328	≤ 2
isolate (source animal id): 329	≤ 2
isolate (source animal id): 330	≤ 2
isolate (source animal id): 331	≤ 2
isolate (source animal id): 332	≤ 2
isolate (source animal id): 333	≤ 2
isolate (source animal id): 334	> 2
isolate (source animal id): 335	≤ 2
isolate (source animal id): 336	≤ 2
isolate (source animal id): 337	≤ 2
isolate (source animal id): 338	> 2
isolate (source animal id): 339	≤ 2
isolate (source animal id): 340	≤ 2
isolate (source animal id): 341	≤ 2
